Assay results as given in US9908897B2, “Spirocyclic derivatives” (CHRONOS THERAPEUTICS LIMITED, priority 2014, dated 2018).

How the values were obtained:
[1] = target: human norepinephrine transporter (NET) (Homo sapiens (Human), UniProt P23975); experiment: Scintillation Proximity Assay (SPA) competition binding, human NET; details: recombinant hNET-CHO membranes, [3H]nisoxetine
Description: (§1) Measure of Affinity to the Human Transporters DAT, NET and SERT
(§2) Affinity is expressed in terms of inhibition constant (Ki) of the compounds of the invention for DAT, NET and SERT, and it is typically calculated from the IC50 values obtained in competition experiments using Cheng and Prusoff equation (Cheng and Prusoff, Biochem. Pharmacol. 22:3099, 1973). In the context of the present invention pKi values (corresponding to the antilogarithm of Ki) are used instead of Ki; pKi are only estimated to be accurate to about 0.3 log unit.
(§3) Scintillation Proximity Assay (SPA) for Human DAT, NET and SERT Binding
(§4) Chinese Hamster Ovary (CHO) cells stably expressing either human DAT (hDAT-CHO) or human NET (hNET-CHO) or human SERT (hSERT-CHO) are used for the membrane preparations for radioligand binding assays using Scintillation proximity Assay (SPA) technique. Each cell line is cultured independently in F-12K Nutrient Mixture containing 10% of Fetal Bovine Serum (FBS) supplemented with 450 μg/ml G-418. When cells are at 70-80% of confluence 3 mM Na Butyrate was added to the cell culture medium. After 24 h of incubation, the culture medium was removed and the cells detached with Versene (DAT) or by scraping (NET and SERT). Cell suspension is centrifuged at 41,000 g for 10 minutes at 4° C. The resultant pellets are re-suspended in 15 volumes of Ice-cold buffer (20 mM HEPES, 145 mM NaCl, 5 mM KCl, pH7.3), homogenized using an Ultra Turrax homogeniser and centrifuged as before. The resultant membrane pellets are re-suspended in up to 15 volume of ice-cold buffer, incubated for 20 minutes at 37-C and centrifuged as before at 41,000 g. The final membrane pellets are re-suspended into 5-10 volumes of ice-cold buffer, dispensed into 0.5 ml aliquots and stored at −80° C. until use. Protein concentration for each preparation is determined using Bio-Rad Protein Assay kit.
(§5) The affinity of the compounds of the invention to the human DAT or NET or SERT transporters is assessed by using the [^3H]WIN-35,428 or [^3H]nisoxetine or [^3H]citalopram binding assays in recombinant human DAT, NET and SERT membranes with the SPA technology. The final assay volume is 50 μL in 384 well plates.
(§6) Briefly, 0.5 μL of test compound in neat DMSO or 0.5 μL of DMSO for total binding (TB) or 0.5 μL of indatraline 1 mM (10 μM final concentration) for non specific binding (NSB) are added to the assay plate. 50 μL of the SPA mixture is added to each well, containing: 30 μg/mL or 10 μg/mL or 25 μg/mL DAT, NET, SERT membranes, respectively; 5 nM [^3H]WIN-35,428 or 5 nM [^3H]nisoxetine or 1 nM [^3H]citalopram, for DAT, NET, SERT assay, respectively; 2.5 mg/mL or 1 mg/mL or 4 mg/mL WGA-PVT SPA beads (PerkinElmer RPNQ0001, for DAT, NET, SERT assay, respectively. All components are added to Assay Buffer (20 mM HEPES pH 7.4, 145 mM NaCl, 5 mM KCl, 0.01% Pluronic F-127). 0.02% BSA was used for DAT binding only. Plates are sealed with Topseal A and centrifuged 1 min, 800 rpm. Plates are loaded into a 1450 Microbeta TriLux (Perkin-Elmer) plate reader and the radioactivity counted after at least 4 hrs or overnight incubation at room temperature. Curve fitting and IC50 estimations are performed using a four parameter model in XLfit (IDBS, Guilford, UK) for Microdoft Excel (Microsoft, Redmond, Wash.).

[2] = target: human dopamine transporter (DAT) (Homo sapiens (Human), UniProt Q01959); experiment: Scintillation Proximity Assay (SPA) competition binding, human DAT; details: recombinant hDAT-CHO membranes, [3H]WIN-35,428
human dopamine transporter (DAT), sequence (Q01959 whole entry): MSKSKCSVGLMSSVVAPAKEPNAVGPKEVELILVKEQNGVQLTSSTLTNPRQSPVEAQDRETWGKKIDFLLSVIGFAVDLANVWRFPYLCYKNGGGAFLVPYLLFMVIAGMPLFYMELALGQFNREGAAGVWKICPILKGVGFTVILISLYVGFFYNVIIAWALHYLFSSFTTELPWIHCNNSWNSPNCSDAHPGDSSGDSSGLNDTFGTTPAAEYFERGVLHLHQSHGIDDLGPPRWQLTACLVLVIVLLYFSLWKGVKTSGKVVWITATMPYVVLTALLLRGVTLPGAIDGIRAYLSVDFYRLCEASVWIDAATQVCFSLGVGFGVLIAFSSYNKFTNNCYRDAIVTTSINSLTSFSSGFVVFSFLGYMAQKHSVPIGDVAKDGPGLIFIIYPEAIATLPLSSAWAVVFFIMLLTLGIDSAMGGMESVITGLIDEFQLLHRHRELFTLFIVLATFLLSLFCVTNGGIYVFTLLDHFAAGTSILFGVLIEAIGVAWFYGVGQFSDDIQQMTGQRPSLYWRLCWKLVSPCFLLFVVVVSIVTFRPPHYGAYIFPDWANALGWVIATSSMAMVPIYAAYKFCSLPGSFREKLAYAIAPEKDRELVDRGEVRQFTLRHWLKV
Description: as §1
In the context of the present invention pKi values (corresponding to the antilogarithm of Ki) are used instead of Ki; pKi are only estimated to be accurate to about 0.3 log unit.
as §3, §4, §5, §6

[3] = target: human serotonin transporter (SERT) (Homo sapiens (Human), UniProt P31645); experiment: Scintillation Proximity Assay (SPA) competition binding, human SERT; details: recombinant hSERT-CHO membranes, [3H]citalopram
human serotonin transporter (SERT), sequence (P31645 whole entry): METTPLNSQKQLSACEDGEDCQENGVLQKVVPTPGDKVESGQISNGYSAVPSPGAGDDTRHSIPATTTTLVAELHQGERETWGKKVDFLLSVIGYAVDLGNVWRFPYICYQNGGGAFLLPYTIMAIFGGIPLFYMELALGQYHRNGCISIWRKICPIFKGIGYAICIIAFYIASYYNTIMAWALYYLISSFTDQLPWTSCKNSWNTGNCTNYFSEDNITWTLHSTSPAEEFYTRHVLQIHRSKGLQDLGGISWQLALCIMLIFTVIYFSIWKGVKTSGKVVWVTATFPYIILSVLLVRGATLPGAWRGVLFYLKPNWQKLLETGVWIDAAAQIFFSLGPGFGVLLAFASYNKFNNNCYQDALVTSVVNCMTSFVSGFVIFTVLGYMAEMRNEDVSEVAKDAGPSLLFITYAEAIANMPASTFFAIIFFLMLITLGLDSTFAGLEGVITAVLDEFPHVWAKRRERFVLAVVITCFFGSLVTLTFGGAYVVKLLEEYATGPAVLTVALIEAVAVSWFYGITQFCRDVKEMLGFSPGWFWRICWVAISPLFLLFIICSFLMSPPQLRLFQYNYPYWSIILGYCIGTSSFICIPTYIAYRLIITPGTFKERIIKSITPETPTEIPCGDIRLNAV
Description: as §1, §2, §3, §4, §5, §6

human norepinephrine transporter (NET), sequence (P23975 whole entry): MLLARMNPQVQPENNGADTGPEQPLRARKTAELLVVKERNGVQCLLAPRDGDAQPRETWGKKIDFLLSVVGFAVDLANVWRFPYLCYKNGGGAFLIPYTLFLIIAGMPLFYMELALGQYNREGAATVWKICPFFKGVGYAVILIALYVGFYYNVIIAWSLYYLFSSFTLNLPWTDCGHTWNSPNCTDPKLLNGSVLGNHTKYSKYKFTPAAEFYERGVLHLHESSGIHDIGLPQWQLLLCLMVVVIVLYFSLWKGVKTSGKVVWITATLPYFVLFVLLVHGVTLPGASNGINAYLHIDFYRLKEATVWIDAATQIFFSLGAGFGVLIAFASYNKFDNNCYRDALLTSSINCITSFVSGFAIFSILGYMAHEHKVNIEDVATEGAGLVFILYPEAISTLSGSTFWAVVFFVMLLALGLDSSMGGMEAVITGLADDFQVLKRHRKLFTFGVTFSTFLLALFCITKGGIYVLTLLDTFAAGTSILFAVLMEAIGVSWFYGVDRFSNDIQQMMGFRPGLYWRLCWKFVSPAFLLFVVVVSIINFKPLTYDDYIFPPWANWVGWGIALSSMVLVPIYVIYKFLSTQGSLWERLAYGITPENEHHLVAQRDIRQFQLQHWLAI

Structure (SMILES)	pIC50 NET [1]	pIC50 DAT [2]	pIC50 SERT [3]	IC50 [1]	IC50 [3]
Fc1cccc(Oc2ccc(F)c(N3CCC4(CC3)CNCCO4)c2F)c1 [Example 23, 9-[2,6-difluoro-3-(3-fluorophenoxy)phenyl]-1-oxa-4,9-diazaspiro[5.5]undecane]	6.91	8.32	6.16		
Cl.O=C1CCNCC12CCN(c1nc(Oc3cccc(F)c3)cc(C(F)(F)F)n1)C2 (stereo not drawn) [Example 88, 2-[4-(3-fluorophenoxy)-6-(trifluoromethyl)pyrimidin-2-yl]-2,7-diazaspiro[4.5]decan-10-one hydrochloride]	6.55	8.15	4.48		
Cl.Fc1cccc(Oc2cccc(N3CCC4(CC3)CNCCO4)n2)c1 [Example 36, 9-[6-(3-fluorophenoxy)pyridin-2-yl]-1-oxa-4,9-diazaspiro[5.5]undecane hydrochloride]	5.73	7.37	5.66		
Cl.FC(F)(F)c1cc(Oc2cccs2)nc(N2CCC3(CC2)CNCCO3)n1 [Example 60, 9-[4-(thiophen-2-yloxy)-6-(trifluoromethyl)pyrimidin-2-yl]-1-oxa-4,9-diazaspiro[5.5]undecane hydrochloride]	5.75	7.34	5.83		
Cc1cc(Oc2ccccc2C)nc(N2CCC3(CC2)CNCCO3)n1.Cl [Example 51, 9-[4-methyl-6-(2-methylphenoxy)pyrimidin-2-yl]-1-oxa-4,9-diazaspiro[5.5]undecane hydrochloride]	5.78	7.33	5.21		
O[C@H]1CNCC[C@@]12CCN(c1nc(Oc3cccc(F)c3)cc(C(F)(F)F)n1)C2 (single isomer, unassigned) [Example 100, 2-[4-(3-fluorophenoxy)-6-(trifluoromethyl)pyrimidin-2-yl]-2,8-diazaspiro[4.5]decan-6-ol]				0.398 µM	6.92 µM
N#Cc1ccc(Oc2ccccc2)cc1N1CCC2(CC1)CNCCO2 [Example 27, 2-{1-oxa-4,9-diazaspiro[5.5]undecan-9-yl}-4-phenoxybenzonitrile]	5.69	7.54	5.15		
Fc1cccc(Oc2cc(F)c(F)cc2N2CCCC3(CCCNC3)C2)c1 (stereo not drawn) [Example 81, 2-[4,5-difluoro-2-(3-fluorophenoxy)phenyl]-2,8-diazaspiro[5.5]undecane]	6.25	7.18	6.71		
Fc1cccc(Oc2cc(N3CCC4(CC3)CNCCO4)c(F)cc2F)c1 [Example 12, 9-[2,4-difluoro-5-(3-fluorophenoxy)phenyl]-1-oxa-4,9-diazaspiro[5.5]undecane]	5.75	6.78	5.97		
OC1CNCCC12CCN(c1nc(Oc3cccc(F)c3)cc(C(F)(F)F)n1)C2 (stereo not drawn) [Example 96, 2-[4-(3-fluorophenoxy)-6-(trifluoromethyl)pyrimidin-2-yl]-2,8-diazaspiro[4.5]decan-6-ol]	6.62		5.25		
Cc1ccc(Oc2ccccc2)cc1N1CCC2(CC1)CNCCO2 [Example 29, 9-(2-methyl-5-phenoxyphenyl)-1-oxa-4,9-diazaspiro[5.5]undecane]	6.01	7.44	5.80		
CSc1cc(Oc2cccc(F)c2)nc(N2CCC3(CC2)CNCCO3)n1.Cl [Example 63, 9-[4-(3-fluorophenoxy)-6-(methylsulfanyl)pyrimidin-2-yl]-1-oxa-4,9-diazaspiro[5.5]undecane hydrochloride]	6.34	8.07	5.15		
c1ccc(Cc2cccc(N3CCC4(CC3)CNCCO4)c2)cc1 [Example 33, 9-(3-benzylphenyl)-1-oxa-4,9-diazaspiro[5.5]undecane]	5.54	6.42	5.73		
Fc1cccc(Oc2cc(F)c(F)cc2N2CCCC3(CCNCC3)C2)c1 [Example 80, 2-[4,5-difluoro-2-(3-fluorophenoxy)phenyl]-2,9-diazaspiro[5.5]undecane]	5.84	6.64	6.49		
Cl.Fc1cccc(Oc2cc(F)c(F)cc2N2CCC3(CC2)CNCC(F)(F)O3)c1 [Example 69, 9-[4,5-difluoro-2-(3-fluorophenoxy)phenyl]-2,2-difluoro-1-oxa-4,9-diazaspiro[5.5]undecane hydrochloride]	5.06	5.97			> 100 µM
O[C@H]1CNCC[C@@]12CCN(c1nc(Oc3cccc(F)c3)cc(C(F)(F)F)n1)C2 (single isomer, unassigned) [Example 99, 2-[4-(3-fluorophenoxy)-6-(trifluoromethyl)pyrimidin-2-yl]-2,8-diazaspiro[4.5]decan-6-ol]				0.245 µM	11.2 µM
Cl.Fc1ccc(Oc2cc(C(F)(F)F)nc(N3CCC4(CC3)CNCCO4)n2)cc1 [Example 58, 9-[4-(4-fluorophenoxy)-6-(trifluoromethyl)pyrimidin-2-yl]-1-oxa-4,9-diazaspiro[5.5]undecane hydrochloride]	5.52	7.53	7.31		
O=C1CCNCC12CCN(c1cc(F)c(F)cc1Oc1cccc(F)c1)C2 (stereo not drawn) [Example 86, 2-[4,5-difluoro-2-(3-fluorophenoxy)phenyl]-2,7-diazaspiro[4.5]decan-10-one]	5.81	6.87	5.65		
CSc1cc(N2CCC3(CC2)CNCCO3)nc(Oc2cccc(F)c2)n1.Cl [Example 64, 9-[2-(3-fluorophenoxy)-6-(methylsulfanyl)pyrimidin-4-yl]-1-oxa-4,9-diazaspiro[5.5]undecane hydrochloride]	5.35	6.38	4.86		
Cl.Fc1cccc(Oc2cc(C(F)(F)F)nc(N3CCC4(CC3)CNCCO4)n2)c1 [Example 56, 9-[4-(3-fluorophenoxy)-6-(trifluoromethyl)pyrimidin-2-yl]-1-oxa-4,9-diazaspiro[5.5]undecane hydrochloride]	6.37	8.42	5.77		
OC1CNCCC12CCN(c1nc(Oc3cccc(F)c3)cc(C(F)(F)F)n1)C2 (stereo not drawn) [Example 97, 2-[4-(3-fluorophenoxy)-6-(trifluoromethyl)pyrimidin-2-yl]-2,8-diazaspiro[4.5]decan-6-ol]	6.62		5.34		
O[C@H]1CNCC[C@@]12CCN(c1nc(Oc3cccc(F)c3)cc(C(F)(F)F)n1)C2 (single isomer, unassigned) [Example 98, 2-[4-(3-fluorophenoxy)-6-(trifluoromethyl)pyrimidin-2-yl]-2,8-diazaspiro[4.5]decan-6-ol]				0.437 µM	11.2 µM
O[C@H]1CNCC[C@@]12CCN(c1nc(Oc3cccc(F)c3)cc(C(F)(F)F)n1)C2 (single isomer, unassigned) [Example 101, 2-[4-(3-fluorophenoxy)-6-(trifluoromethyl)pyrimidin-2-yl]-2,8-diazaspiro[4.5]decan-6-ol]				0.263 µM	11.2 µM
